The source of these data is PMC11645267, “Novel pharmacologic inhibition of lysine-specific demethylase 1 as a potential therapeutic for glioblastoma” (Cancer Gene Therapy, 2024).

Common to all, as to assay type: cell-based
The test system of one experiment is GSC cells. As to the kind of experiment: mRNA expression of super-enhancer-associated genes. The settings on record: 96 h. The method, then:
RNA-seq analysis was conducted to examine gene expression changes associated with super-enhancers/enhancers. Among the genes with de novo H3K4me2 modification, the average log2 fold changes (S2172 treatment relative to DMSO treatment) were −0.12 ± 0.03 for super-enhancer-related genes and −0.01 ± 0.01 for typical enhancer-related genes (P = 0.0004) (Supplementary Fig. S6B). In contrast, among the genes with increased H3K4me2 modification, the average log2 fold changes were −0.04 ± 0.01 for super-enhancer-related genes and −0.07 ± 001 for typical enhancer-related genes (P = 0.028) (Supplementary Fig. S6C). […]
(§1) instructions. For GSC cells, the CellTiter-Glo 3D Viability Assay (Promega, Madison, WI, USA) was used to measure the living cells. All proliferation experiments were repeated […]
Total RNA from the cell lines was extracted using TRIzol (Thermo Fisher Scientific), followed by reverse-transcription using Prime Script RT Master Mix (Takara, Kusatsu, Japan). TaqMan qPCR (Roche Diagnostics, Basel, Switzerland) and SYBR Green qPCR (TOYOBO, Osaka, Japan) were performed at least in triplicate for the target genes.
Expression levels of each gene were normalized to GAPDH. GAPDH for TaqMan PCR assays was Hs.PT.39a.22214836 (Integrated DNA Technologies, Coralville, IA, USA).
Oligonucleotide primers used for SYBR Green assays are shown in Supplementary […]

The next experiment relates to glioma stem cells (GSCs). As to the kind of experiment: Cell growth / viability in glioma stem cells. An excerpt:
Inhibition of LSD1 can effectively suppress stem-like tumor-propagating cells in human glioma.
Supplementary materials and methods
RNA-seq data of malignant glioma (n=157) and normal tissue (n=5) were obtained from TCGA (http://xena.ucsc.edu/).
Cell lines and culture conditions
Glioblastoma cell line, LN229, was obtained from the American Type Culture Collection (ATCC, Manassas, VA, USA). Normal fibroblast cell lines TIG3 and WI-38, TM31 (low grade glioma) were obtained from the RIKEN Bioresource Research Center (Tsukuba, Japan). Onda10 and KINGS1 (low grade glioma) cell lines were obtained from the Japanese Collection of Research Bioresources (Ibaraki, Japan). F3 is utilized as a neural stem cell line{Kim, 2004 #1412}{Natsume, 2013 #1009}. All cells were maintained in DMEM medium (Wako, Osaka, Japan) containing 5% fetal bovine serum (FBS, Thermo Fisher Scientific, Waltham, MA, USA) and 1% penicillin-streptomycin (Wako). Glioma stem cell lines (GSC1228, GSC316, and GSC222) were established previously{Natsume, 2013 #1009}{Katsushima, 2016 #1156}. […]
For the cell proliferation assay, cells at a density of 1 × 10^5 cells per well were seeded before treatment with LSD1 inhibitors. Cell proliferation was measured after 4 days using a Cell Counting Kit 8 (Dojindo, Kumamoto, Japan) according to the manufacturer ’s […]

The next experiment deals with LN229. In words: Western blot of global histone modifications. The settings on record: LN229, 5 μM, 96 h. The method, then: The effects of S2172 on global histone modifications in GSCs were examined using western blot analysis. GSC cells were treated with 5 μM of S2172 since […] of the cells are still viable at this concentration (Fig. 2, Supplementary Fig. S1E). […] Treatment of GSCs with S2172 increased the overall levels of H3K4me2 as well as H3K9me2. However, these changes were not statistically significant (Fig. 2A, B). […]
as §1
The density of bands was quantified using ImageJ software (https://imagej.nih.gov/ij/). […]
When mice were scanned with MRI, mice were anesthetized with isoflurane (3% in air) and placed in MRS 3017 Benchtop MRI Systems (MR Solutions, Guildford, UK). Using MRI images, tumor volumes were obtained by compiling tumor areas from all slices that contained tumors and calculated by ImageJ software (https://imagej.nih.gov/ij/) {Towner, […]
A. Western blot analysis (left panel) of H3K4me1, H3K4me2, H3K4me3, and H3K9me2 after treatment with either DMSO or S2172 5μM for 96 h in LN229. […] Quantification of signal intensity of western blot (right panel). […] Ratio was calculated by dividing cleaved band intensity by total protein band intensity. […]
On the technique in general: A western blot detects proteins with antibodies after separation by electrophoresis.

`NC1CCC(NC2CC2c2cc(F)cc(F)c2OCc2ccccc2)CC1` (stereo not shown) [S2172]: in the experiment with GSC cells, the “expression of super-enhancer-associated genes EGR1 and CDK6” value is “downregulated”. The viability at 5 µM in the experiment on glioma stem cells (GSCs) (GSC cells, 5 μM, read-out: viable cells) is less than 80%. Also, the IC50 with glioma stem cells (GSCs) (mean over glioma stem cells, read-out: mean half-maximal inhibitory concentration (IC50), cell growth in GSCs) is 13.8 µM. Moreover, the “level of H3K4me2” value with LN229 is “significantly increased”.
